Results: patent publication US12493042B2, “Molecules and methods for iterative polypeptide analysis and processing” (priority 2013, dated 2025)

Assays:
[1] = target: T1, Edmanase (Edman degradation enzyme, modified cruzain) (Trypanosoma cruzi, UniProt P25779, A260C/C147G/G187S/L282Y); format: biochemical; details: PITC-derivatized X-AMC substrate, 30 degrees, excitation 370 nm, emission 460 nm
T1 construct: His tag; made in house; host or cells: E. coli BL-21(De3), pet42(a)
Protocol: (§1) Single amino acid, aminomethylcoumarin (AMC) containing compounds were obtained from BAChem (Bubendorf, Switzerland). These included Arg-AMC, Asn-AMC, Phe-AMC, Met-AMC, Ala-AMC, and Pro-AMC. Phenylisothiocyanate (PITC) was purchased from Thermo-scientific and coupled to the N-terminus of each substrate by incubating for 10 minutes at room temperature in a 100 μL solution of acetonitrile:pyridine:water (10:5:3) with 5 μL of PITC. The derivatized substrate was then dried by rotary evaporation and suspended in 250 μL of 1× Phosphate Buffered Saline (PBS).
(§2) The ability of the Edman degradation enzyme to perform N-terminal cleavage on six substrates of the form Ed-X-AMC, where Ed denotes the Edman reagent, X is an amino acid from the set (Ala, […], Phe, Met, Pro, Arg), and AMC is the fluorogenic […] group was characterized. Cleavage of the X-AMC bond was monitored by the appearance of fluorescence (FIG. 6).
(§3) All kinetic measurements were performed in a 96-well corning plate on a BioTek Synergy2 plate reader at 30 degrees. Reactions were started by adding 5-20 μL of purified enzyme to 100 μL of 10 mM substrate solution. Final enzyme concentration was between 1 nM and 100 nM, depending on the experiment. Fluorescence of the cleaved product was measured by exciting at 370 nm (30 second intervals for 1-10 hours) and monitoring emissions at 460 nm. A standard curve using AMC from Invitrogen was referenced quantitate the amount of product formation.

[2] = target: Edmanase (Edman degradation enzyme; Trypanosoma cruzi cruzain variant C25G/G65S/A138C/L160Y, SEQ ID NO: 29) (Trypanosoma cruzi, UniProt P25779, A260C/A295H/A296K/C147G/E217T/G187S/G216A/L282Y/N191D/Q141S/Q281S/S151A); format: biochemical; details: Ed-X-AMC (PITC-derivatized) substrate; 30 degrees; 1 nM-100 nM enzyme; excitation 370 nm, emission 460 nm
Text: (§4) A synthetic gene containing the Edman degradation enzyme was purchased from GenScript. The gene encoded a modified version of the cruzian enzyme of T. cruzi having the following substitution mutations: C25G, G65S, A138C, and L160Y.
(§5) The gene was inserted between an NdeI andan XhoI site in a pet42(a) (Novagen) expression vector and transformed into E. coli, BL-21(De3) chemically competent cells. Protein was then over-expressed following Studier's auto-induction protocol. Bacterial cells were harvested by centrifugation of the cell culture at 5000 rpm and 4° C. for 10 minutes. Cells were then suspended in 1×PBS with 10% glycerol and 6M guanidine chloride, pH 7.4. Cells were then lysed by sonication (15 seconds at 20% power, 8 times on ice). The cell lysate was centrifuged at 18000 rpm, 4 degrees for 20 minutes. The supernatant was then filtered through a 0.2 μm cellulose acetate filter. The filtered lysate was loaded onto a 5 mL HisTrap (Ni-NTA) column and washed with 5 column volumes of binding buffer (50 mM Tris-HCl, 150 mM NaCl, 6M guanidine chloride, 25 mM imidazole). Bound protein was then eluted in 50 mM Tris-HCl, 150 mM NaCl, 6M guanidine chloride, 500 mM imidazole. Purified fractions were prepared for SDS-PAGE analysis by mixing 2 parts sample with 1 part 4× loading dye. Samples were analyzed on 16% SDS-PAGE precast gels, and visualized by Coomassie staining. The purified protein was then refolded by successive, overnight dialyses into 1×PBS containing 5M, 3M, 1M, 0.5M, and 0M guanidine chloride. Protein concentration was determined using the calculated molar extinction coefficient and measuring the A280 on an ND-8000 spectrophotometer (Thermo Fisher Scientific).
as §1, with “(PBS). Inhibitor compound, 1-(2-anilino-5-methyl-1,3-thiazol-4-yl)-ethanone, was ordered from Sigma-Aldrich (St. Louis, MO).” for “(PBS).”
as §2, §3

peptides = target: T2, peptides (Thermus thermophilus, UniProt Q5SGX2, A229N/A231G/F152V/F205A/F336A/G338T/H142N/H143G/H212A/H232D/H287G/I228V/K234Y/K289N/L100D/L154K/L165D/L303D/L340G/M230E/W153G/Y257T); experiment: Binding of Phe NAAB mutant to peptides compared with wild-type protein
T2 construct: a truncated version of wild-type Thermus Thermophilus PheRS (residues 86-350)

[3] = target: N-terminal amino acid of peptides; experiment: Biolayer interferometry binding assays between peptides and purified NAABs; details: 1×PBS; dissociation rate constant divided by association rate constant, 1:1 model; read-out: Measured Affinity Constants
Protocol: Real time binding assays between peptides and purified NAABs were performed using biolayer interferometry on a Blitz system (Fortebio, Menlo Park, CA). This system monitors interference of light reflected from the surface of a fiber optic sensor to measure the thickness of molecules bound to the sensor surface. Sensors coated with peptides were allowed to bind to the NAABs in 1×PBS at several different protein concentrations. Binding kinetics were calculated using the Blitz software package, which fit the observed binding curves to a 1:1 binding model to calculate the association rate constants. NAABs were allowed to dissociate by incubation of the sensors in 1×PBS. Dissociation curves were fit to a 1:1 model to calculate the dissociation rate constants. Binding affinities were calculated as the kinetic dissociation rate constant divided by the kinetic association rate constant.
Each square in the binding matrix represents the binding affinity for a single NAAB with an N-terminal amino acid as measured by biolayer interferometry. Each row in the matrix contains all the binding data for a single NAAB, and each column contains the binding data for a single N-terminal amino acid (shown by single-letter code).

[4] = system: Cc1cc(=O)oc2cc(NC(=O)[C@H](Cc3ccccc3)NC(=S)Nc3ccccc3)ccc12; experiment: purified protein, by the assay type; format: biochemical, Trypanosoma cruzi; details: other: Ed-X-AMC (PITC-derivatized) substrate; 30 degrees; 1 nM-100 nM enzyme; excitation 370 nm, emission 460 nm; pH 7.4; 30.0 °C
Text: as §4, §5
as §1, with “(PBS). Inhibitor compound, 1-(2-anilino-5-methyl-1,3-thiazol-4-yl)-ethanone, was ordered from Sigma-Aldrich (St. Louis, MO).” for “(PBS).”
as §2, §3

[5] = system: Cc1cc(=O)oc2cc(NC(=O)[C@H](CCCNC(=N)N)NC(=S)Nc3ccccc3)ccc12; experiment: purified protein, by the assay type; format: biochemical, Trypanosoma cruzi; details: other: Ed-X-AMC (PITC-derivatized) substrate; 30 degrees; 1 nM-100 nM enzyme; excitation 370 nm, emission 460 nm; pH 7.4; 30.0 °C
Text: as §4, §5
as §1, with “(PBS). Inhibitor compound, 1-(2-anilino-5-methyl-1,3-thiazol-4-yl)-ethanone, was ordered from Sigma-Aldrich (St. Louis, MO).” for “(PBS).”
as §2, §3

T2 sequence (Q5SGX2 other isoform, or with tags, fused parts or gaps with the stated changes): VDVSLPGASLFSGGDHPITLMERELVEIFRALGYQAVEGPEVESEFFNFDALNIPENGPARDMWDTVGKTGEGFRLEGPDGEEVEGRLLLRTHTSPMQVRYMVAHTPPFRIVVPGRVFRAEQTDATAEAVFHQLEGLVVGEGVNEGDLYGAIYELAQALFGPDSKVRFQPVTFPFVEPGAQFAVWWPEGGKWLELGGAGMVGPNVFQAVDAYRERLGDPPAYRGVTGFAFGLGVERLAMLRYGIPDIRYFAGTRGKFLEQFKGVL

## C[C@H](N)C(=O)O [Alanine]
[1]
  Kcat: 0.55 s⁻¹
  Km: 21.3 µM

## Cc1cc(=O)oc2cc(NC(=O)[C@H](CCCNC(=N)N)NC(=S)Nc3ccccc3)ccc12 [Arginine]
[2]
  Kcat: 0.087 s⁻¹

## N[C@@H](Cc1ccccc1)C(=O)O [Phenylalanine]
peptides
  binding to peptides compared to the wild-type protein: Tighter binding

## Glutamate
[3]
  Kd: 2120 nM

## CSCC[C@H](NC(=S)Nc1ccccc1)C(=O)Nc1ccc2c(C)cc(=O)oc2c1 [Methionine]
[2]
  Kcat: 0.54 s⁻¹
  Km: 272 µM

## O=C(O)[C@@H]1CCCN1 [Proline]
[1]
  Kcat: 0.0014 s⁻¹
  Km: 252 µM

## Edmanase (Edman degradation enzyme; Trypanosoma cruzi cruzain variant C25G/G65S/A138C/L160Y, SEQ ID NO: 29) (Trypanosoma cruzi; A260C/A295H/A296K/C147G/E217T/G187S/G216A/L282Y/N191D/Q141S/Q281S/S151A)
[4]
  Km: 122.8 µM
  kcat: 0.47 s⁻¹
  kcat/Km: 3800 M⁻¹ s⁻¹
[5]
  Km: 167.8 µM
